Measurements taken from patent US6172038A, “Antipathogenic peptides and compositions comprising them” (priority 1996, dated 2001).

Legend:
Type in all cases: cell-based
Bacillus megaterium Bm11 = assay: Antibacterial activity (MIC), growth inhibition in 96-well plates; settings: 100% inhibition of growth after 18-20 h at 37° C.
[1] = test system: Pseudomonas aeruginosa ATCC 27853; assay: Antibacterial activity (MIC), growth inhibition in 96-well plates; also synergy with tetracycline
Experimental: (viii) Antibacterial activity of the peptides.
Antibacterial activity of the mixtures was determined as described in Experimental procedures, section (xii).

[2] = test system: human red blood cells (hRBC); assay: Hemolysis of human red blood cells; settings: 50 μM peptide, 30 min at 37° C.
Experimental: (ix) Hemolysis of human red blood cells. The peptides were tested for their hemolytic activities against human red blood cells (hRBC). Fresh hRBC with EDTA were rinsed 3 times with PBS (35 mM phosphate buffer/0.15 M NaCl, pH 7.3) by centrifugation for 10 min at 800 g and resuspended in PBS. Peptides dissolved in PBS were then added to 50 μL of a solution of the stock hRBC in PBS to reach a final volume of 100 μL (final erythrocyte concentration, 5% v/v). The resulting suspension was incubated under agitation for 30 min at 37° C. The samples were then centrifuged at 800 g for 10 min. Release of hemoglobin was monitored by measuring the absorbance of the supernatant at 540 nm. Controls for zero hemolysis (blank) and 100% hemolysis consisted of hRBC suspended in PBS and Triton 1%, respectively.

[3] = test system: P. aeruginosa and E. coli; assay: Effect of pooled human serum on antibacterial activity
Experimental: (vi) Preparation of serunl Blood was collected from five volunteers and allowed to clot at room temperature for 4 h. The blood was then centrifuged for 15 min at 1500 g, and the serum was removed and pooled. The serum complement was inactivated by heating at 56° C. for 30 min.
(viii) Antibacterial activity of the peptides. The antibacterial activity of the diastereomers was examined in sterile 96-well plates (Nunc F96 microtiter plates) in a final volume of 100 μL as follows: Aliquots (50 μl) of a suspension containing bacteria at a concentration of 10^6 Colony-Forming Units (CFU)/ml LB (Lauria broth) medium were added to 50 μL of water or 66% pooled normal human serum in PBS, containing the peptide in 2-fold serial dilutions. Growth inhibition was determined by measuring the absorbance at 492 nm with a Microplate autoreader El309 (Bio-tek Instruments), following incubation for 18-20 h at 37° C. […] The bacteria used were: Escherichia coli D21, Pseudomonas aeruginosa ATCC 27853, Acinetobacter calcoaceticus Acl1, Salmonella typhimurium LT2, Bacillus megaterium Bml1, Micrococcus luteus ATCC 9341, Bacillus subtilis ATCC 6051.

[4] = test system: Bacillus subtilis ATCC 6051; assay: Antibacterial activity (MIC), growth inhibition in 96-well plates; settings: 100% inhibition of growth after 18-20 h at 37° C.
[5] = test system: Acinetobacter calcoaceticus Ac11; assay: as above; settings: 100% inhibition of growth after 18-20 h at 37° C.
Escherichia coli D21 = assay: as above
[6] = 100% inhibition of growth after 18-20 h at 37° C.

Q: Which “Minimal Inhibitory Concentration B. megaterium (Bm11)” value (Bacillus megaterium Bm11) does the source give for dermaseptin S [reference compound] here?
A: 0.5 µM

Q: And the “Minimal Inhibitory Concentration P. aeruginosa (ATCC-27853) 0% Serum” value ([1]; 0% Serum)?
A: 25 µM

Q: And the “Minimal Inhibitory Concentration P. aeruginosa (ATCC-27853) 33% Serum” value ([1]; 33% pooled human serum)?
A: 200 µM

Q: And the “Minimal Inhibitory Concentration P. aeruginosa (ATCC 27853)” value [1, 6]?
A: 25 µM

Q: What about the “% hemolysis at 50 μM peptide” value [2] of the same substance?
A: 9%

Q: What about the “fold less active in the presence of serum” value [3] of the same substance?
A: 8-10 fold

Q: What about the “Minimal Inhibitory Concentration B. subtilis (ATCC 6051)” value [4] of the same substance?
A: 4 µM

Q: And the “Minimal Inhibitory Concentration A. calcoaceticus (Ac11)” value [5]?
A: 3 µM

Q: What about the “Minimal Inhibitory Concentration E. coli (D21) 0% Serum” value (Escherichia coli D21; 0% Serum) of the same substance?
A: 6 µM

Q: What about the “Minimal Inhibitory Concentration E. coli (D21) 33% Serum” value (Escherichia coli D21; 33% pooled human serum) of the same substance?
A: 50 µM

Q: What about the “Minimal Inhibitory Concentration E. coli (D21)” value (Escherichia coli D21; [6]) of the same substance?
A: 6 µM
